Where two headings read alike, the source gives them in different places.
How the values were obtained:
[1] = cited from earlier work
[2] = test system: SJGBM-2 and UW228-2; experiment: Validation in established cell lines, Emax criterion in both cancer cell lines; format: cell-based; settings: Homo sapiens; SJGBM-2 and UW228-2, selection criterion; read-out: maximum effect (Emax) in cancer cell lines
Source text: (§1) DSS3 (single drug screen and validation steps) and Emax (validation step only) were estimated based on four-parameter logistic curves.

[3] = test system: SJ-GBM2; experiment: Validation in established cell lines (0.1-10,000 nM, triplicates, 72 h, CellTiter-Glo 2.0); format: cell-based, human; settings: for Emax: validation, maximum effect, 0.1-10,000 nM, 72 h; for IC50: SJ-GBM2, metabolic activity
Protocol: (§2) Following 72-hour exposure cell viability was measured using CellTiter-Glo 2.0 Assay (cat.no. G9241, Promega) and the Spark microplate reader (Tecan).
as §1

[4] = test system: UW228-2; experiment: as above; format: cell-based, human; settings: for Emax: UW228-2, validation, maximum effect, 0.1-10,000 nM, 72 h; for IC50: UW228-2, metabolic activity
Protocol: as §2, §1

[5] = test system: LFS fibroblasts; experiment: as above; format: cell-based; settings: non-cancerous cells
Protocol: as §2, §1

[6] = test system: LFS fibroblasts; experiment: Genotoxicity screen, Micronucleus Test (MNT); format: cell-based, human; design: key: MNT score = number of micronuclei / number of nuclei; settings: Cmax concentration (or concentration causing 20% decrease of viability), 120 h, median
Protocol: To evaluate genotoxicity of compounds, the Micronucleus Test (MNT)[96]^,[97] method was used. […] Next, the cells were visualized using ImageXpress Micro 4 High-Content Imaging System (Molecular Devices, LLC) and 4 images for each well were analyzed with CellProfiler version 4.1.3 (the pipeline described in the supplementary information).
The MNT score for a specific compound was calculated according to a following formula: MNTscore=(numberofmicronuclei/numberofnuclei)
Resulting MNT scores were compared to negative (DMSO) and positive (mitomycin C) control scores using Welch t-test (R version 4.2.2, packages stat, ggplot2). If scores were statistically different from positive control, then the compound was classified as non-genotoxic. If scores were statistically different from negative control, then the compound was classified as genotoxic.

[7] = test system: DKFZ-BT084 PDX (LFS-associated SHH-MB), orthotopic in NSG mice; experiment: In vivo drug testing in LFS SHH-MB PDX model; design: species or system mouse; settings: adavosertib 60 mg/kg p.o. 5 times/week, vincristine 0.5 mg/kg i.p. once weekly, 4 weeks
Protocol: Animal experiment permits (G-193/21 and G-135/23) were issued by the Regional Council in Karlsruhe. In in vivo drug treatment and in vivo target dependence experiments female NOD.Cg-Prkdc^scidIl2rg^tm1Wjl/SzJ (NSG) mice were used. Intracranial patient-derived xenograft (PDX) tumor cell injections were performed in 6-8-week old animals. Following LFS-associated SHH-MB PDX models were injected: DKFZ-BT084[86] (relapsed tumor), LFS_primary[78] (gift from Prof. Aurélie Ernst, treatment-naive) and HS231222 (newly-established model, treatment-naive). After tumor detection mice were randomly assigned into 4 treatment groups (4-5 animals/group) without blinding.
LFS_primary[78] (gift from Aurélie Ernst) and HS231222. […] The control group received treatment with solvents only.

[8] = test system: CDK1 phosphorylation (phospho Y15) in SJ-GBM2 and UW228-2; experiment: Adavosertib pharmacodynamic marker (Western blot) in cell lines; format: cell-based, human; settings: adavosertib 100 nM, 300 nM for 8 and 24 hours
Source text: Protein concentration of cell lysates were estimated using the Pierce BCA Protein Assay Kit (cat. no. 23225, ThermoFisher Scientific). For detecting CDK1 phosphorylation the following antibodies were used: α-CDK1 (phospho Y15) [BLR101H] (cat.no. ab275958, Abcam), α-Cdk1/Cdk2 (AN21.2) (cat.no. sc-53219, Santa Cruz Biotechnology, Inc.), α-HSP90 (cat.no. 4877, Cell Signaling Technology). Western blot bands were visualized using Amersham ECL Prime Western Blotting Detection System (cat. no. RPN2232SK, GE Healthcare) and quantified using ImageJ (version 1.50b, Wayne Rasband and co., NIH). Post analysis brightness and contrast of presented images was increased by 50%.

[9] = test system: TP53mut SHH-MB patient-derived organoids (PDOs); experiment: Drug treatment assay in PDOs, summary over all three PDO models; format: cell-based; settings: Homo sapiens
Protocol: (§3) Cells were treated with DMSO as negative control and with Staurosporine (10 μM) (BIO-CONNECT BV, cat.no. 62996-74-1) as positive control. Metabolic activity was measured 72h after drug treatment by adding 40 μL of CellTiter-Glo 3D cell viability assay (Promega, cat.no. G9683) to each well, shake for 5 minutes using the Multidrop Combi system dispenser and incubated at room temperature and in the dark for an additional 25 minutes. Thereafter, bioluminescence was measured using the CLARIOstarplus (BMG Labtech) plate reader. Results were normalized to DMSO negative controls (100% viability) and Staurosporine positive controls (0% viability).
(§4) In analysis of the results from PDO lines Synergy finder+ was used and growth curves were generated using R version 4.2.2 (package drc). Presented synergy scores are averages across 3 biological replicates (each with two technical replicates, from which a mean value was calculated).

[10] = test system: Trp53+/- LFS mouse model (Trp53tm1Tyj/J); settings: Trp53+/- mice, 4-week treatment and 4-week observation period
Protocol: At the age of 6-8-weeks mice were randomly assigned into 4 treatment groups (3-4 animals/group) without blinding.
4-week treatment period was followed by 4-week observation period to monitor for drug toxicity-related symptoms. Afterwards the animals were sacrificed and organs (brain, liver, spleen and kidney) were extracted. Tissues were fixed for 48 hours in Roti®-Histofix 4 % (cat.no. P087.5, Roth) followed by dehydration in 50% Ethanol. […] For γH2AX (p-S139) staining 4 μm FFPE tissue sections were cut, deparaffinized and re-hydrated. […] Antibody- and H&E-stained specimens were evaluated by the pathologist (T.G.P.G.). Images were taken with the Leica DM3000 LED microscope (10-fold magnification) and analyzed using Fiji v.2.16.0 (Java 8) and R version 4.2.2 (packages ggplot2 and ggsignif).
At the stage of designing experiments, a power analysis was performed for BT084 and LFS_primary models using R version 4.1.0 (type I error: 5%, type II error: 20%). Survival, IVIS readout and weight was analyzed using R version 4.2.2 (packages stat, ggplot2, ggsignif, survival, survminer and stats). Images were analyzed using Fiji v.2.16.0 (Java 8) and R version 4.2.2 (packages ggplot2 and ggsignif).

[11] = test system: TP53mut SHH-MB patient-derived organoid MED113FH; experiment: Drug treatment assay in PDOs (72 h, CellTiter-Glo 3D); format: cell-based, human; settings: PDO MED113FH, single drug
Protocol: as §3, §4

[12] = test system: TP53mut SHH-MB patient-derived organoid B062-008; experiment: as above; format: cell-based, human; settings: PDO B062-008, single drug
Protocol: as §3, §4

[13] = test system: TP53mut SHH-MB patient-derived organoid B062-13315; experiment: as above; format: cell-based, human; settings: PDO B062-13315, single drug
Protocol: as §3, §4

[14] = design: method as in PMID 35507041; settings: mice; cited from earlier work
[15] = test system: orthotopic GBM model; settings: cited from earlier work
[16] = test system: TP53mut cancer cell lines SJ-GBM2 and UW228-2; experiment: Drug combination screen (synergy scores, SynergyFinder+); format: cell-based, human; settings: TP53mut brain cancer cell lines
Protocol: Drugs were tested in combinations in vitro using TP53^mut cancer cell lines SJ-GBM2 and UW228-2. […] Cell metabolic activity was measured in the same way as in the single drug screen (3 technical replicates x min. 3 biological replicates for each condition).
as §4

In the case of C[C@@H]1COCCN1c1cc(C2([S@](C)(=N)=O)CC2)nc(-c2cc[nH]c3nccc2-3)n1 [AZD6738], the Cmax ([1]; Cmax literature source given as NA (value 1000 for all)) is given as 1000 nM, the Emax [2] is given as > 50% and the Emax ([3]; Homo sapiens) is given as 94.8%. The Emax ([4]; Homo sapiens) was 67.5% and the “LFS fibroblast DSS3” value [5] was 0.0.
For NC(=O)Nc1cc(-c2cccc(F)c2)sc1C(=O)N[C@H]1CCCNC1 [AZD7762], the Cmax ([1]; Cmax from literature, ref PMID per drug) is given as 803 nM, the Emax [2] is given as > 50% and the “MNT_median (micronucleus test score)” value [6] is given as 1,15. The Emax ([3]; Homo sapiens) was 99.5%, the Emax ([4]; Homo sapiens) was 97% and the “LFS fibroblast DSS3” value [5] was 0.9.
In the case of C=CCn1c(=O)c2cnc(Nc3ccc(N4CCN(C)CC4)cc3)nc2n1-c1cccc(C(C)(C)O)n1 [Adavosertib], the “Median lifespan since tumor detection” value [7] is reported as 9 days, the Emax [2] is reported as > 50% and the “MNT_median (micronucleus test score)” value [6] is reported as 1,44. For the same compound, the “levels of CDK1 phosphorylation” value [8] was “reduced levels of CDK1 phosphorylation”, the IC50 ([9]; mean over three PDOs, metabolic activity, read-out: mean IC50) was 166 nM and the IC50 ([9]; range over three PDOs, read-out: IC50 range) was 117 to 215 nM. For the same compound, the IC50 ([3]; Homo sapiens) was 43.4 nM, the Emax ([3]; Homo sapiens) was 98.1% and the Emax ([4]; Homo sapiens) was 89.1%. It also gave an IC50 ([4]; Homo sapiens) of 273 nM, a Survival [10] of 100% and an IC50 ([11]; Homo sapiens) of 167 nM. For the same compound, the DSS [11] was 9,53, the IC50 ([12]; Homo sapiens) was 215 nM and the DSS [12] was 8,36. The IC50 ([13]; Homo sapiens) was 117 nM and the DSS [13] was 17,70.
For C[C@@H]1COCCN1c1cc(-c2ccnn2C)c2ccnc(-c3ccn[nH]3)c2n1 [BAY-1895344], the intra-tumoral drug concentration [14] is given as 495 nM and the “LFS fibroblast DSS3” value [5] is given as 0.
For Cc1cc(Nc2ncc3c(n2)N(C)CN(c2c(Cl)cccc2Cl)C3=O)ccc1C1CCN(C)CC1 [Debio 0123], the BBB penetration [15] is given as “ability to cross BBB”, the IC50 [3] is given as 147 nM and the IC50 [4] is given as 270 nM. For the same compound, the “interaction in combination with vinca alkaloid (synergy score)” value [16] was “additive interaction”.

From publication PMC12828543, “Preclinical drug screen identifies WEE1 inhibitor and vinca alkaloid as a combination treatment concept for Li-Fraumeni syndrome medulloblastoma” (iScience, 2025)
